Assay results as given in publication PMC12281424, “A Rac-specific competitive inhibitor of guanine nucleotide binding reduces metastasis in triple-negative breast cancer” (Cell Reports Medicine, 2025).

How the values were obtained:
[1] = target: TrkA(h) (Homo sapiens, UniProt P04629); assay: Kinase Profiler; type: biochemical
Description: (§1) The kinase profiler was performed by the company Eurofins (Discovery, Panlab and Cerep).

[2] = target: Fms(h) (Homo sapiens, UniProt P07333); assay: Kinase Profiler; type: biochemical
Description: as §1

[3] = target: Platelet Activating Factor (PAF) (Homo sapiens, UniProt P25105); assay: Safety screen; type: binding
Description: (§2) Blood cell counts, kinase profiler, safety screen, bacterial cytotoxicity, Ames, micronucleus assays were performed by the company Eurofins (France). The kinase profiler was performed by the company Eurofins (Discovery, Panlab and Cerep).

[4] = system: MDA-MB-468 Luc cells; assay: Orthotopic breast cancer (TNBC xenograft) model; type: in vivo, mouse; details: 25 mg/kg/day i.p.
Description: The anti-metastatic potential of A41 was assessed in a TNBC xenograft model by orthotopic injection of MDA-MB-468 Luc cells into the mammary fat pad of […] Nordic Medical Research Institute (NMRI) nude mice randomized in 2 groups. The tumor grows gradually over time. At the 50th day post grafting, when a volume of ∼1,000 mm^3 was reached, the tumor was resected, which corresponded to tumor mass of approximately 0.6 g (Figure S8A). Mice were then treated with A41 (25 mg/kg/day, intraperitoneally; group 2) or vehicle for 4 weeks (group 1).
Figure 6 A41 decreases metastasis of TNBC cells in vivo (A) Representative images of luciferase bioluminescence intensities (BLI) in whole body, legs, and ovaries/uterus 4 weeks after resection of MD1-MB-468 Luc tumor in NMRI nude mice not treated (control) and treated with A41 (25 mg/kg/day, intraperitoneally for 4 weeks). (B) Metastasis frequency quantification based on ex vivo BLI measurements in indicated organs from control (black bars) and A41-treated mice 4 weeks after tumor resection (white bars) (N = 10–15 mice; ∗p < 0.05 vs. controls). (C) BLI quantification in legs and ovaries/uterus from control (black squares) and A41-treated (white squares) NMRI nude mice 4 weeks after tumor resection (N = 10–15 mice; ∗p < 0.05 vs. controls). (D) Cumulative proportion of immunocompetent control (red) and A41-treated mice (blue) displaying regrowth of the primary tumor after its resection. (E) Metastasis frequency quantified from ex vivo BLI measurements in leg bones, lungs, kidneys, and ovaries/uterus from immunocompetent control (black bar) and A41-treated (white bar) mice (N = 10 mice; ∗p < 0.05 vs. control). (F) Survival curve of immunocompetent control (red) and A41-treated mice (blue) after primary tumor resection (day 0).
Orthotopic cell xenograft was performed by injection of 4 million MDA-MB-468Luc cells in the fourth fat pad from 5-week-old NMRI nude mice. Primary tumour was allowed to develop during 5 weeks and tumour growth was assessed by tumour volume measurement using a caliper. Primary tumor was then removed by surgical exeresis and weighed. Treatments began 1 day before exeresis. A41 (25 mg/kg) was administered intraperitoneally on a daily basis during 4 weeks. Mice were weighed 5 times a week and in vivo bioluminescence intensities were measured once a week (Imager PerkinElmer IVIS spectrum bioluminescence imager). At the end of the protocol, mice were sacrificed and ex vivo bioluminescence intensities of indicated organs (legs, ovaries, uterus, lungs and liver) were measured within 15 min of D-luciferin intraperitoneal injection (150 mg kg−1). Photons emitted by cancer cells were counted by bioluminescent imaging and expressed in counts per minute (c.p.m.).

[5] = target: GCK(h) (Homo sapiens, UniProt Q12851); assay: Kinase Profiler; type: biochemical
Description: as §1

[6] = target: Muscarinic M4 (Homo sapiens, UniProt P08173); assay: Safety screen; type: binding
Description: (§3) Blood cell counts, kinase profiler, safety screen, bacterial cytotoxicity, Ames, micronucleus assays were performed by the company Eurofins (France).

[7] = target: MLK1(h) (Homo sapiens, UniProt P80192); assay: Kinase Profiler; type: biochemical
Description: as §2

[8] = target: EGFR(L858R)(h) (Homo sapiens, UniProt P00533, L858R); assay: Kinase Profiler; type: biochemical
Description: as §1

[9] = target: Histamine H1 (Homo sapiens, UniProt P35367); assay: Safety screen; type: binding
Description: as §2

[10] = target: CDK2/cyclinE(h) (Homo sapiens, UniProt P24941); assay: Kinase Profiler; type: biochemical
Description: as §2

[11] = target: Tachykinin NK1 (Homo sapiens, UniProt P25103); assay: Safety screen; type: binding
Description: as §3

[12] = target: PRK2(h) (Homo sapiens, UniProt Q16513); assay: Kinase Profiler; type: biochemical
Description: as §1

[13] = target: DYRK1B(h) (Homo sapiens, UniProt Q9Y463); assay: Kinase Profiler; type: biochemical
Description: as §1

[14] = target: Monoamine Oxidase MAO-B (Homo sapiens, UniProt P27338); assay: Safety screen; type: biochemical
Description: as §3

[15] = target: BrSK2(h) (Homo sapiens, UniProt Q8IWQ3); assay: Kinase Profiler; type: biochemical
Description: as §2

[16] = target: Monoamine Oxidase MAO-A (Homo sapiens, UniProt P21397); assay: Safety screen; type: biochemical
Description: as §2

[17] = target: TLK1(h) (Homo sapiens, UniProt Q9UKI8); assay: Kinase Profiler; type: biochemical
Description: as §1

[18] = target: MAP4K4(h) (Homo sapiens, UniProt O95819); assay: Kinase Profiler; type: biochemical
Description: as §1

[19] = target: TSSK3(h) (Homo sapiens, UniProt Q96PN8); assay: Kinase Profiler; type: biochemical
Description: as §1

[20] = target: Pim-2(h) (Homo sapiens, UniProt Q9P1W9); assay: Kinase Profiler; type: biochemical
Pim-2(h), sequence (Q9P1W9 whole entry): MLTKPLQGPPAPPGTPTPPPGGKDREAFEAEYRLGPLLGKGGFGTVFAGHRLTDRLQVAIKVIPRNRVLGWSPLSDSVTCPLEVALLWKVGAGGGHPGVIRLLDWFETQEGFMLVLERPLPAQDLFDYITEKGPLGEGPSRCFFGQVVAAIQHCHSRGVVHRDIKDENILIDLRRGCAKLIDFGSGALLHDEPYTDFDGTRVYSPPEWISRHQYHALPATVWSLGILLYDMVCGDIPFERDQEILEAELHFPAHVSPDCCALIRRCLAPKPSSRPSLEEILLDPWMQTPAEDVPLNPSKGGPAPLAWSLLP
Description: as §2

Muscarinic M4, sequence (P08173 whole entry): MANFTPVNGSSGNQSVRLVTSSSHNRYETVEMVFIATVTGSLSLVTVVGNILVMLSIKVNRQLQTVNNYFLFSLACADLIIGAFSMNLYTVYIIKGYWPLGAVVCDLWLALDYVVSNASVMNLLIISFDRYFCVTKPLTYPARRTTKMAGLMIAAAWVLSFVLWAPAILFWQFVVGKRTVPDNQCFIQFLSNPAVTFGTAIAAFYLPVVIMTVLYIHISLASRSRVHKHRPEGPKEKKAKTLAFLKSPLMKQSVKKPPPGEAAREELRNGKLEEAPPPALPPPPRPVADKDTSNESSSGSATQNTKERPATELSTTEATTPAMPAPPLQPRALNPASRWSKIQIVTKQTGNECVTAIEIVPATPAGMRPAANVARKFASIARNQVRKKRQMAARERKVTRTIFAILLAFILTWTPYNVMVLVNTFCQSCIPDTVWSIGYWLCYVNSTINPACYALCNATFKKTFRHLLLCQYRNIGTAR
Fms(h), sequence (P07333 20-972): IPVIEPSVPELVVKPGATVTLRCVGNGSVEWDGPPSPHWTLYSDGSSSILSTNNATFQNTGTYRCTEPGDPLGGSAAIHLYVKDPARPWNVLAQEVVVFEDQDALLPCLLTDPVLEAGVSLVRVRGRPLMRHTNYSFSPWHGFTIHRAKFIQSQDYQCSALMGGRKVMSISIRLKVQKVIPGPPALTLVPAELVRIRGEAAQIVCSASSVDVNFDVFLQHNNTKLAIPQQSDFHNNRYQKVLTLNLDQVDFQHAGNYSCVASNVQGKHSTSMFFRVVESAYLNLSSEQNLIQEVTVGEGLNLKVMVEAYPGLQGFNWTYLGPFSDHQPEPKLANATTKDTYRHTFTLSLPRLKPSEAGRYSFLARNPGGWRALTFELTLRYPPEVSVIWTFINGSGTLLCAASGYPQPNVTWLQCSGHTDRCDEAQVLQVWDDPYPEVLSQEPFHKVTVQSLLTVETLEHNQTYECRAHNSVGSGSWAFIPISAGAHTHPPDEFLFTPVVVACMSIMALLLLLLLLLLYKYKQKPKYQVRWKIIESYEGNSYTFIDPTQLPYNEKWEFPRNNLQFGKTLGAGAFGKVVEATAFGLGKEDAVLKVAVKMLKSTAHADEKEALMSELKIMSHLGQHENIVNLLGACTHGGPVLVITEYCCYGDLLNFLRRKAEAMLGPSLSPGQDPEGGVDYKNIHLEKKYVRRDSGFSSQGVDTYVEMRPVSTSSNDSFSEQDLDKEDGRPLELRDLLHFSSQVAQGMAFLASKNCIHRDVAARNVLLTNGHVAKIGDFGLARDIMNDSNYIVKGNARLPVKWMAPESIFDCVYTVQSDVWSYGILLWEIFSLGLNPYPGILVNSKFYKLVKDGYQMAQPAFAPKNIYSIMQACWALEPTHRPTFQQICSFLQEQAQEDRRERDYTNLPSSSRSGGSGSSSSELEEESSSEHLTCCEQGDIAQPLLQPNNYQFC
TLK1(h), sequence (Q9UKI8 whole entry): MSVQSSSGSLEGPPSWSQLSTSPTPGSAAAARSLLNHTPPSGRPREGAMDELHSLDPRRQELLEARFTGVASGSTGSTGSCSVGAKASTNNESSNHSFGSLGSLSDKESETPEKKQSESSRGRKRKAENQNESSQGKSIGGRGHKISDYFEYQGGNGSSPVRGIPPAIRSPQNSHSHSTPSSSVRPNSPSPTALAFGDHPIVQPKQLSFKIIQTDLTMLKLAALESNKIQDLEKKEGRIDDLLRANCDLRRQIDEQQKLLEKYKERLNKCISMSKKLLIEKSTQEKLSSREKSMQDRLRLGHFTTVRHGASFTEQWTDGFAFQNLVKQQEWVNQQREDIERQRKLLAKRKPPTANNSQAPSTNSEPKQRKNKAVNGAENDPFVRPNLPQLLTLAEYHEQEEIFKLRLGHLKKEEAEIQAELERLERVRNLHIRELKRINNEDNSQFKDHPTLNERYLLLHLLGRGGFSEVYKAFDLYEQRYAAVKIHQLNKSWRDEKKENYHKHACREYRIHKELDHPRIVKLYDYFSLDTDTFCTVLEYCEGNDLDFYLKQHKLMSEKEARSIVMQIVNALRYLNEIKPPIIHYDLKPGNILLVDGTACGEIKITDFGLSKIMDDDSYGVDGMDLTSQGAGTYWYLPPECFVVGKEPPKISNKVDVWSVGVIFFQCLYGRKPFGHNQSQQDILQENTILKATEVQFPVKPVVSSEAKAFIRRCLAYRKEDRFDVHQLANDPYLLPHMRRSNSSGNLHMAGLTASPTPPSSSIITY
MLK1(h), sequence (P80192 whole entry): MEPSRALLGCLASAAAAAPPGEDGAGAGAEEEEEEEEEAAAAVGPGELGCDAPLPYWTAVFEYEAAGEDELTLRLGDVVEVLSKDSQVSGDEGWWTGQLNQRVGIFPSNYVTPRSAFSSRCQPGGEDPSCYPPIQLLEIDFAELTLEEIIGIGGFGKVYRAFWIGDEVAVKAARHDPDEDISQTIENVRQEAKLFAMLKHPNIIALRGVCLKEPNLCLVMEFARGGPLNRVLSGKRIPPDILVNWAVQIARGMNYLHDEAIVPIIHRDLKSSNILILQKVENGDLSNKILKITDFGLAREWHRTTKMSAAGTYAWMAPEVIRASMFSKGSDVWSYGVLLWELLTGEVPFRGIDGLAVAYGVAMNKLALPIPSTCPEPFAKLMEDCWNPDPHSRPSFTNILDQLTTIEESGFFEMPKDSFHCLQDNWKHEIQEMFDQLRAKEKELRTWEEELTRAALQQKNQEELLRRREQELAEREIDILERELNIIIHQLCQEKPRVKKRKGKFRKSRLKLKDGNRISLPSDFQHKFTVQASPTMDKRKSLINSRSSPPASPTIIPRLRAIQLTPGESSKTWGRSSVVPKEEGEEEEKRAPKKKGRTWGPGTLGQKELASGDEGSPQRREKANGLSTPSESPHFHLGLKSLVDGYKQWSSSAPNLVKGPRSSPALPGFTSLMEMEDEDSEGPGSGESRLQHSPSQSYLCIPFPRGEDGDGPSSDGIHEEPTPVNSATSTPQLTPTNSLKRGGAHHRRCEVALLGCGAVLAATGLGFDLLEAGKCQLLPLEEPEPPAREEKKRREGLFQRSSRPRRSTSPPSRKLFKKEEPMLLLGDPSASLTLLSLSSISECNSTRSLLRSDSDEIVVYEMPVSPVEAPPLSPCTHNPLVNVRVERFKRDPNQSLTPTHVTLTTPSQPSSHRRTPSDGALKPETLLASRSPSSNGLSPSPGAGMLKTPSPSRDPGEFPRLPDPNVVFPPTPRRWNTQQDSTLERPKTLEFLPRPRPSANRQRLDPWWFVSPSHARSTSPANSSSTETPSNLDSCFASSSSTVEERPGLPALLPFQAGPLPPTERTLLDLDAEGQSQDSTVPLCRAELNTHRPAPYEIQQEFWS
MAP4K4(h), sequence (O95819 whole entry): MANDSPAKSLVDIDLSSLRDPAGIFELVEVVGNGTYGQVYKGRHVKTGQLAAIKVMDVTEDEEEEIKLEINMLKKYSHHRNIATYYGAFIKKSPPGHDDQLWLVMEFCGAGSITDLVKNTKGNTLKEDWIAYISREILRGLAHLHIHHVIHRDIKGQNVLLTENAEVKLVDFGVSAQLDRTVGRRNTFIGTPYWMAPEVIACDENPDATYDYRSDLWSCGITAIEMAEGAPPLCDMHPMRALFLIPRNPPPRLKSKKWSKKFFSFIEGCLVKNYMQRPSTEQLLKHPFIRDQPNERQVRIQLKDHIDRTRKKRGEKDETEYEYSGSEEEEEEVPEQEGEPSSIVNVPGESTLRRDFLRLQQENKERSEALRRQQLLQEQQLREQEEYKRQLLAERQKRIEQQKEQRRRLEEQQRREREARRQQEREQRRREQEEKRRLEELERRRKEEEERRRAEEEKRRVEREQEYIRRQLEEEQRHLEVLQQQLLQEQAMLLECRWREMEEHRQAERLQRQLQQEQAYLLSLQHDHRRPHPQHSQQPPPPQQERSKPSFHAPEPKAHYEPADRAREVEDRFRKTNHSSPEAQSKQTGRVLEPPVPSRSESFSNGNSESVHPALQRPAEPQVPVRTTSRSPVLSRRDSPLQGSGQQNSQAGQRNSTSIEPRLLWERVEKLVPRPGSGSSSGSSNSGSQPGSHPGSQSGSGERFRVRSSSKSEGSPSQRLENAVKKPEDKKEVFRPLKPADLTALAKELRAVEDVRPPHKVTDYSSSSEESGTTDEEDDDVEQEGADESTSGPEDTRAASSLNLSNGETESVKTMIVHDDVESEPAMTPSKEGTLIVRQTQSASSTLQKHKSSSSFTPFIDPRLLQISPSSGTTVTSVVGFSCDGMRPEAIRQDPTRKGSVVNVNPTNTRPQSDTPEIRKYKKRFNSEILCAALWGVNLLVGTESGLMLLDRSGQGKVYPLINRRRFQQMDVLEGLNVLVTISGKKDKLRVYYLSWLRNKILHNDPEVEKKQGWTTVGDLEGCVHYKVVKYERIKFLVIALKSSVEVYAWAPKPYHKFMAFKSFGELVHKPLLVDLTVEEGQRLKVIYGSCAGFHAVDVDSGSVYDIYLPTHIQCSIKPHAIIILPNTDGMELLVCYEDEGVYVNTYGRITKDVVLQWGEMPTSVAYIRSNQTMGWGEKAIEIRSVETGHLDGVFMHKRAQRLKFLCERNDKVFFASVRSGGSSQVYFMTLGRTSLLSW

COc1ccc(OC)c(NS(=O)(=O)c2ccc(NC(=O)CCSc3ccc(C)cc3)cc2)c1 [Compound A41]
Activity(%) [1]: 99%
Activity(%) [2]: 112%
% inh. [3]: 78%
primary tumor regrowth (in vivo BLI) ([4]; 4 weeks after resection): decrease in primary tumor regrowth
ex vivo luminescence intensity of femur, ovaries, and uterus ([4]; 4 weeks post resection): significantly lower in A41-treated than in control mice
metastasis frequency (leg bones, lungs, kidneys, ovaries, uterus; ex vivo BLI) ([4]; 4 weeks post resection): significantly higher frequency in control than in A41-treated mice
weight of the mice ([4]; 4 weeks, vs vehicle): no difference between the two groups
Activity(%) [5]: 114%
% inh. [6]: -1%
Activity(%) [7]: 102%
Activity(%) [8]: 104%
% inh. [9]: 41%
Activity(%) [10]: 100%
% inh. [11]: 41%
Activity(%) [12]: 110%
Activity(%) [13]: 96%
% inh. [14]: 17%
Activity(%) [15]: 118%
% inh. [16]: 10%
Activity(%) [17]: 102%
Activity(%) [18]: 107%
Activity(%) [19]: 104%
Activity(%) [20]: 110%
